Assay results published in PMC5076878 (Bioorganic & medicinal chemistry letters, 2016).
“And” between values parts separate entries of the source, which are not always exact repeats. Equal entries are not always repeated.

What was measured:
human LAT1 [1] = molecular target: T1, human LAT1 (Homo sapiens, UniProt Q01650); format: cell-based; details: compound at 200 μM; pre-loaded HEK-hLAT1 cells; at least triplicate
human LAT1 [2] = molecular target: T1, human LAT1; experiment: cis-inhibition assay: inhibition of [3H]-gabapentin uptake into HEK-hLAT1 cells; format: cell-based; details: read-out: % Inhibition of [3H]-gabapentin uptake

T1 sequence (Q01650 whole entry): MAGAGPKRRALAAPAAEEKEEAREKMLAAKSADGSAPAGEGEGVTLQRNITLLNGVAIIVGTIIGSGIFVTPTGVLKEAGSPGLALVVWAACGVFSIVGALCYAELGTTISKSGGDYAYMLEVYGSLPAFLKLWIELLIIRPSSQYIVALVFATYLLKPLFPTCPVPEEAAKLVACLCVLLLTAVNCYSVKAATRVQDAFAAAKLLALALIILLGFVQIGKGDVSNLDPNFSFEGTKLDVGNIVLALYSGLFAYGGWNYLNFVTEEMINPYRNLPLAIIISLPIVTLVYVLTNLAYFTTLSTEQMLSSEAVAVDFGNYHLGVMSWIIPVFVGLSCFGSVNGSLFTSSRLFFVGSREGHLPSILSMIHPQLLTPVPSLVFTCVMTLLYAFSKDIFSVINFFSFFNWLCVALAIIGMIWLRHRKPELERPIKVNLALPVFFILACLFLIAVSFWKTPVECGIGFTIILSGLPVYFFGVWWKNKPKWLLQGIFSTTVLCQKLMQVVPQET
T1 sequence (P08195 102-630 partner): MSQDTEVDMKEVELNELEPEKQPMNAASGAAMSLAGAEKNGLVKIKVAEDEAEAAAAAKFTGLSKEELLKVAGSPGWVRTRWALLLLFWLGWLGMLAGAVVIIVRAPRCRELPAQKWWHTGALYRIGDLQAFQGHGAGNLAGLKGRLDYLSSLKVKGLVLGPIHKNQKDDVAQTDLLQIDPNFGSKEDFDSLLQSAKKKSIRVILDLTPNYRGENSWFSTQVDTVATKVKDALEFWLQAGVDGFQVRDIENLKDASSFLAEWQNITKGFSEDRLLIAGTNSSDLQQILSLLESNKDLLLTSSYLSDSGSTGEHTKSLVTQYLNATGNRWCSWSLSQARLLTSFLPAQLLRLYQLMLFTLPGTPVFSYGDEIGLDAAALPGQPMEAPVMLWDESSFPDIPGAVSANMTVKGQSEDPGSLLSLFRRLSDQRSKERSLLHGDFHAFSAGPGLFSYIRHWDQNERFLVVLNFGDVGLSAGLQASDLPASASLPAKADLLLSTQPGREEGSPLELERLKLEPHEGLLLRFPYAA

SMILES	Efflux Rate of [3H]-gabapentin (human LAT1 [1])	inhibition at 200 µM (human LAT1 [2]) [%]
N[C@@H](Cc1ccc(O)cc1)C(=O)O [Compound 1b, tyrosine]	–	68 ± 0.5
N[C@@H](Cc1c[nH]c2ccccc12)C(=O)O [Compound 1d, tryptophan, reference compound]	1.6 ± 0.3 fmol/min	79 ± 0.6
CC[C@H](C)[C@H](N)C(=O)O [Compound 1f, isoleucine, reference compound]	2.5 ± 0.1 fmol/min	–
CSCC[C@H](N)C(=O)O [Compound 1g, methionine, reference compound]	2.4 ± 0.1 fmol/min	–
N=C(N)NCCC[C@H](N)C(=O)O [Compound 1i, reference compound]	0.75 ± 0.1 fmol/min	49 ± 2
CONC(=O)[C@@H](N)CC(C)C.Cl [Compound 9e]	2.1 fmol/min and 2.1 ± 0.2 fmol/min	–
N[C@@H](Cc1ccccc1)c1nnn[nH]1 [Compound 11]	0.61 ± 0.01 fmol/min	–
CC(C)C[C@H](N)C(N)=O.Cl [Compound 13e, leucinamide]	0.69 fmol/min and 0.69 ± 0.01 fmol/min	–

Now from value to compound, other results behind:

Efflux Rate of [3H]-gabapentin (human LAT1 [1])	SMILES	inhibition at 200 µM (human LAT1 [2]) [%]
3.6 fmol/min and 3.6 ± 0.7 fmol/min	N[C@@H](Cc1ccccc1)C(=O)O [Compound 1a, phenylalanine, reference compound]	85 ± 0.6
0.61 ± 0.06 fmol/min	CS(=O)(=O)NC(=O)[C@@H](N)Cc1ccccc1 [Compound 10a]	–
0.63 ± 0.03 fmol/min	CS(=O)(=O)NC(=O)[C@@H](N)Cc1ccc(O)cc1 [Compound 10b]	–
1.0 ± 0.1 fmol/min	N[C@@H](Cc1ccc(O)cc1)C(=O)NO [Compound 12b]	–
1.0 ± 0.1 fmol/min	N[C@@H](Cc1c[nH]c2ccccc12)C(=O)NO [Compound 12d]	–
1.5 fmol/min and 1.5 ± 0.1 fmol/min	CC(C)C[C@H](N)C(=O)NO.Cl [Compound 12e]	–
1.5 fmol/min and 1.5 ± 0.2 fmol/min	CC[C@H](C)[C@H](N)C(=O)NO.Cl [Compound 12f]	–
1.1 ± 0.01 fmol/min	CSCC[C@H](N)C(=O)NO.Cl [Compound 12g]	–
0.70 ± 0.1 fmol/min	NCC(=O)NO [Compound 12h]	–
